In brackets after ≈: the same amount, converted by molar mass. Activity calls are given as the source filed them. The rule behind the calls is not given here.
Tests used:
Type in all cases: functional
Staphylococcus aureus [1] = experiment: Inhibition of antibiotic-resistance in Staphylococcus aureus ATCC29213 at 0.5 times of MIC incubated for 20 days; conditions: time 20.0 day
Staphylococcus aureus [2] = experiment: Antibacterial activity against Staphylococcus aureus ATCC29213 by CLSI based serial dilution method
Staphylococcus aureus [3] = experiment: Antibacterial activity against methicillin-resistant Staphylococcus aureus 21-5 by CLSI based serial dilution method
Enterococcus faecalis = experiment: Antibacterial activity against Enterococcus faecalis ATCC29212 by CLSI based serial dilution method
Enterococcus = experiment: Antibacterial activity against vancomycin-resistant Enterococcus ATCC51299 by CLSI based serial dilution method
Escherichia coli = experiment: Antibacterial activity against Escherichia coli ATCC25922 by CLSI based serial dilution method
Pseudomonas aeruginosa = experiment: Antibacterial activity against Pseudomonas aeruginosa ATCC27853 by CLSI based serial dilution method

Row | Structure (SMILES) | inhibition (Staphylococcus aureus [1]) | MIC (Staphylococcus aureus [2]) | MIC (Staphylococcus aureus [3]) | MIC (Enterococcus faecalis) | MIC (Enterococcus) | MIC (Escherichia coli) | MIC (Pseudomonas aeruginosa)
1 | CCn1cc(C(=O)O)c(=O)c2cc(F)c(N3CCNCC3)cc21 | inactive | – | – | – | – | – | –
2 | Cc1ccc(C(C)C)c(OCCCC[N+](C)(C)CC(=O)N2CCOCC2)c1.[Br-] | – | > 128 µg/mL | > 128 µg/mL | > 128 µg/mL | > 128 µg/mL | > 128 µg/mL | > 128 µg/mL
3 | Cc1ccc(C(C)C)cc1OCCCC[N+](C)(C)CC(=O)N(C(C)C)C(C)C.[Br-] | – | 8 µg/mL | 16 µg/mL | 16 µg/mL | 32 µg/mL | 128 µg/mL | > 128 µg/mL
4 | CCCCCCNC(=O)C[N+](C)(C)CCCCCOc1cc(C)ccc1C(C)C.[Br-] | – | 2 µg/mL | 2 µg/mL | 2 µg/mL | 4 µg/mL | 8 µg/mL | 32 µg/mL
5 | CCCCNC(=O)C[N+](C)(C)CCCCCOc1cc(C)ccc1C(C)C.[Br-] | – | 8 µg/mL | 16 µg/mL | 16 µg/mL | 64 µg/mL | 64 µg/mL | > 128 µg/mL
6 | CCCNC(=O)C[N+](C)(C)CCCCCOc1cc(C)ccc1C(C)C.[Br-] | – | 32 µg/mL | 32 µg/mL | 64 µg/mL | 128 µg/mL | 128 µg/mL | > 128 µg/mL
7 | Cc1ccc(C(C)C)c(OCCC[N+](C)(C)CC(=O)N(CC(C)C)CC(C)C)c1.[Br-] | – | 4 µg/mL | 8 µg/mL | 8 µg/mL | 16 µg/mL | 64 µg/mL | > 128 µg/mL
8 | Cc1ccc(C(C)C)cc1OCCCCC[N+](C)(C)CC(=O)N(C(C)C)C(C)C.[Br-] | – | 4 µg/mL | 8 µg/mL | 8 µg/mL | 8 µg/mL | 64 µg/mL | > 128 µg/mL
9 | CCCCCCCNC(=O)C[N+](C)(C)CCCCCOc1cc(C(C)C)ccc1C.[Br-] | – | 1 µg/mL | 4 µg/mL | 1 µg/mL | 2 µg/mL | 4 µg/mL | 8 µg/mL
10 | CCCN(CCC)C(=O)C[N+](C)(C)CCCCOc1cc(C)ccc1C(C)C.[Br-] | – | 8 µg/mL | 16 µg/mL | 32 µg/mL | 64 µg/mL | 128 µg/mL | > 128 µg/mL
11 | Cc1ccc(C(C)C)c(OCCCC[N+](C)(C)CC(=O)N2CCSCC2)c1.[Br-] | – | 64 µg/mL | 64 µg/mL | 64 µg/mL | > 128 µg/mL | > 128 µg/mL | > 128 µg/mL
12 | CCCCN(CCCC)C(=O)C[N+](C)(C)CCCCOc1cc(C)ccc1C(C)C.[Br-] | – | 2 µg/mL | 2 µg/mL | 8 µg/mL | 8 µg/mL | 128 µg/mL | > 128 µg/mL
13 | CCCCCNC(=O)C[N+](C)(C)CCCCCOc1cc(C)ccc1C(C)C.[Br-] | – | 8 µg/mL | 4 µg/mL | 16 µg/mL | 16 µg/mL | 32 µg/mL | 128 µg/mL
14 | CCCCCCCNC(=O)C[N+](C)(C)CCCOc1cc(C)ccc1C(C)C.[Br-] | – | 1 µg/mL | 8 µg/mL | 2 µg/mL | 4 µg/mL | 4 µg/mL | 16 µg/mL
15 | CCCCN(CCCC)C(=O)C[N+](C)(C)CCCOc1cc(C)ccc1C(C)C.[Br-] | – | 8 µg/mL | 8 µg/mL | 16 µg/mL | 32 µg/mL | 128 µg/mL | > 128 µg/mL
16 | CCCCCCN(CCCCCC)C(=O)C[N+](C)(C)CCCCCOc1cc(C(C)C)ccc1C.[Br-] | – | 1 µg/mL | 16 µg/mL | 1 µg/mL | 1 µg/mL | 8 µg/mL | 16 µg/mL
17 | CCCCN(CCCC)C(=O)C[N+](C)(C)CCCCCOc1cc(C)ccc1C(C)C.[Br-] | – | 2 µg/mL | 2 µg/mL | 4 µg/mL | 8 µg/mL | 32 µg/mL | 128 µg/mL
18 | Cc1ccc(C(C)C)c(OCCCCC[N+](C)(C)CC(=O)N2CCSCC2)c1.[Br-] | – | 32 µg/mL | 32 µg/mL | 32 µg/mL | 128 µg/mL | 128 µg/mL | > 128 µg/mL
19 | Cc1ccc(C(C)C)c(OCCCC[N+](C)(C)CC(=O)N(CC(C)C)CC(C)C)c1.[Br-] | – | 4 µg/mL | 4 µg/mL | 8 µg/mL | 16 µg/mL | 64 µg/mL | > 128 µg/mL
20 | CCCCNC(=O)C[N+](C)(C)CCCOc1cc(C)ccc1C(C)C.[Br-] | – | 32 µg/mL | 32 µg/mL | 64 µg/mL | 128 µg/mL | 128 µg/mL | > 128 µg/mL
21 | Cc1ccc(C(C)C)c(O)c1 [THYMOL] | – | > 128 µg/mL | > 128 µg/mL | > 128 µg/mL | > 128 µg/mL | 128 µg/mL (≈ 852 µM) | > 128 µg/mL

Row | Structure (SMILES) | inhibition (Staphylococcus aureus [1]) | MIC (Staphylococcus aureus [2]) | MIC (Staphylococcus aureus [3]) | MIC (Enterococcus faecalis) | MIC (Enterococcus) | MIC (Escherichia coli) | MIC (Pseudomonas aeruginosa)
22 | CCCCCNC(=O)C[N+](C)(C)CCCCOc1cc(C(C)C)ccc1C.[Br-] | – | 4 µg/mL | 8 µg/mL | 8 µg/mL | 16 µg/mL | 16 µg/mL | 128 µg/mL
23 | Cc1ccc(C(C)C)c(OCCCC[N+](C)(C)CC(=O)N(C(C)C)C(C)C)c1.[Br-] | – | 8 µg/mL | 16 µg/mL | 16 µg/mL | 32 µg/mL | 128 µg/mL | > 128 µg/mL
24 | CCCCCCNC(=O)C[N+](C)(C)CCCCOc1cc(C)ccc1C(C)C.[Br-] | – | 2 µg/mL | 1 µg/mL | 4 µg/mL | 8 µg/mL | 16 µg/mL | 64 µg/mL
25 | CCCCN(CCCC)C(=O)C[N+](C)(C)CCCCOc1cc(C(C)C)ccc1C.[Br-] | – | 2 µg/mL | 4 µg/mL | 4 µg/mL | 16 µg/mL | 32 µg/mL | 128 µg/mL
26 | Cc1ccc(C(C)C)cc1OCCC[N+](C)(C)CC(=O)N(C(C)C)C(C)C.[Br-] | – | 16 µg/mL | 64 µg/mL | 32 µg/mL | 32 µg/mL | 128 µg/mL | > 128 µg/mL
27 | CCCCCNC(=O)C[N+](C)(C)CCCOc1cc(C(C)C)ccc1C.[Br-] | – | 8 µg/mL | 32 µg/mL | 16 µg/mL | 32 µg/mL | 32 µg/mL | 128 µg/mL
28 | Cc1ccc(C(C)C)cc1OCCC[N+](C)(C)CC(=O)N1CCOCC1.[Br-] | – | 128 µg/mL | > 128 µg/mL | 128 µg/mL | > 128 µg/mL | > 128 µg/mL | > 128 µg/mL
29 | Cc1ccc(C(C)C)cc1OCCC[N+](C)(C)CC(=O)N1CCSCC1.[Br-] | – | 64 µg/mL | 128 µg/mL | 64 µg/mL | > 128 µg/mL | 128 µg/mL | > 128 µg/mL
30 | CCCN(CCC)C(=O)C[N+](C)(C)CCCCCOc1cc(C)ccc1C(C)C.[Br-] | – | 8 µg/mL | 8 µg/mL | 8 µg/mL | 16 µg/mL | 64 µg/mL | > 128 µg/mL
31 | CC1(C)S[C@@H]2[C@H](NC(=O)[C@H](N)c3ccccc3)C(=O)N2[C@H]1C(=O)O [AMPICILLIN] | – | 0.5 µg/mL (≈ 1.43 µM) | 64 µg/mL (≈ 183 µM) | 0.5 µg/mL (≈ 1.43 µM) | 16 µg/mL (≈ 45.8 µM) | 4 µg/mL (≈ 11.4 µM) | > 128 µg/mL
32 | Cc1ccc(C(C)C)cc1OCCCC[N+](C)(C)CC(=O)N1CCSCC1.[Br-] | – | 32 µg/mL | 64 µg/mL | 64 µg/mL | 128 µg/mL | 128 µg/mL | > 128 µg/mL
33 | CCCCCCCNC(=O)C[N+](C)(C)CCCOc1cc(C(C)C)ccc1C.[Br-] | – | 2 µg/mL | 16 µg/mL | 2 µg/mL | 4 µg/mL | 8 µg/mL | 16 µg/mL
34 | CCCCNC(=O)C[N+](C)(C)CCCCCOc1cc(C(C)C)ccc1C.[Br-] | – | 16 µg/mL | 16 µg/mL | 16 µg/mL | 128 µg/mL | > 64 µg/mL | > 128 µg/mL
35 | CCCCCCNC(=O)C[N+](C)(C)CCCCOc1cc(C(C)C)ccc1C.[Br-] | – | 2 µg/mL | 8 µg/mL | 4 µg/mL | 8 µg/mL | 16 µg/mL | 32 µg/mL
36 | Cc1ccc(C(C)C)c(OCCCCC[N+](C)(C)CC(=O)N(C(C)C)C(C)C)c1.[Br-] | – | 4 µg/mL | 2 µg/mL | 8 µg/mL | 16 µg/mL | 64 µg/mL | > 128 µg/mL
37 | CCCCNC(=O)C[N+](C)(C)CCCCOc1cc(C)ccc1C(C)C.[Br-] | – | 16 µg/mL | 16 µg/mL | 64 µg/mL | 128 µg/mL | 128 µg/mL | > 128 µg/mL
38 | CCCNC(=O)C[N+](C)(C)CCCOc1cc(C)ccc1C(C)C.[Br-] | – | 64 µg/mL | 128 µg/mL | 128 µg/mL | > 128 µg/mL | > 128 µg/mL | > 128 µg/mL
39 | CCCNC(=O)C[N+](C)(C)CCCCOc1cc(C(C)C)ccc1C.[Br-] | – | 64 µg/mL | > 128 µg/mL | 64 µg/mL | > 128 µg/mL | 128 µg/mL | > 128 µg/mL
40 | CCCCCCCNC(=O)C[N+](C)(C)CCCCOc1cc(C(C)C)ccc1C.[Br-] | – | 1 µg/mL | 16 µg/mL | 2 µg/mL | 4 µg/mL | 4 µg/mL | 16 µg/mL
41 | Cc1ccc(C(C)C)cc1OCCCCC[N+](C)(C)CC(=O)N1CCOCC1.[Br-] | – | 128 µg/mL | 128 µg/mL | 128 µg/mL | > 128 µg/mL | > 128 µg/mL | > 128 µg/mL
